Measured values reported in patent publication US9493455B2, “Azaindole derivatives as inhibitors of protein kinases” (ORIBASE PHARMA, priority 2012, dated 2016).

Experiments:
[1] = target: T1, FGFR2 (Homo sapiens, UniProt P21802); assay: In vitro kinase assay (Z′-LYTE); assay type: biochemical; conditions: read-out: % of inhibition of the kinase compared to the control
T1 construct: purchased Invitrogen
Experimental: (§1) The inhibitory activity of the compounds on several kinases including BRAF, EGFR (ErbB1), EGFR (ErbB1) T790M L858R, FGFR2, KDR (VEGFR2), PDGFRA (PDGFR alpha), SRC and other was evaluated by Invitrogen using the Z′-LYTE® technology. Briefly, the Z′-LYTE® biochemical assay employs a fluorescence-based, coupled-enzyme format and is based on the differential sensitivity of phosphorylated and non-phosphorylated peptides to proteolytic cleavage. The peptide substrate is labeled with two fluorophores—one at each end—that make up a FRET pair. A ratiometric method, which calculates the ratio (the Emission Ratio) of donor emission to acceptor emission after excitation of the donor fluorophore at 400 nm, is used to quantitate reaction progress.
(§2) The compounds are screened in 1% DMSO (final) in the well. For 10 point titrations, 3-fold serial dilutions are conducted from the starting concentration. All Peptide/Kinase Mixtures are diluted to a 2× working concentration in the appropriate Kinase Buffer. All ATP Solutions are diluted to a 4× working concentration in Kinase Buffer (50 mM HEPES pH 7.5, 0.01% BRIJ-35, 10 mM MgCl2, 1 mM EGTA). ATP Km apparent is previously determined using a Z′-LYTE® assay.
(§3) Each compound was incubated at a concentration of 100 nM (excepted to test the activity against ABL and ABL T315I for which the compounds were incubated at a concentration of 10 μM) and the tables B1 to B12 summarize the results obtained showing the inhibitory power of a compound. The inhibitory activity of OR0512 was also investigated using the same assays and the kinases for which activity was inhibited at more than 50% at the concentration of 100 nM of OR0512 are listed in the table B13.

[2] = target: T2, BRAF (Homo sapiens, UniProt P15056); assay: In vitro kinase assay (Z′-LYTE); assay type: biochemical; conditions: compound 100 nM; ATP 100 μM; read-out: % of inhibition of the kinase compared to the control
T2 construct: purchased Invitrogen
T2 sequence (P15056 whole entry): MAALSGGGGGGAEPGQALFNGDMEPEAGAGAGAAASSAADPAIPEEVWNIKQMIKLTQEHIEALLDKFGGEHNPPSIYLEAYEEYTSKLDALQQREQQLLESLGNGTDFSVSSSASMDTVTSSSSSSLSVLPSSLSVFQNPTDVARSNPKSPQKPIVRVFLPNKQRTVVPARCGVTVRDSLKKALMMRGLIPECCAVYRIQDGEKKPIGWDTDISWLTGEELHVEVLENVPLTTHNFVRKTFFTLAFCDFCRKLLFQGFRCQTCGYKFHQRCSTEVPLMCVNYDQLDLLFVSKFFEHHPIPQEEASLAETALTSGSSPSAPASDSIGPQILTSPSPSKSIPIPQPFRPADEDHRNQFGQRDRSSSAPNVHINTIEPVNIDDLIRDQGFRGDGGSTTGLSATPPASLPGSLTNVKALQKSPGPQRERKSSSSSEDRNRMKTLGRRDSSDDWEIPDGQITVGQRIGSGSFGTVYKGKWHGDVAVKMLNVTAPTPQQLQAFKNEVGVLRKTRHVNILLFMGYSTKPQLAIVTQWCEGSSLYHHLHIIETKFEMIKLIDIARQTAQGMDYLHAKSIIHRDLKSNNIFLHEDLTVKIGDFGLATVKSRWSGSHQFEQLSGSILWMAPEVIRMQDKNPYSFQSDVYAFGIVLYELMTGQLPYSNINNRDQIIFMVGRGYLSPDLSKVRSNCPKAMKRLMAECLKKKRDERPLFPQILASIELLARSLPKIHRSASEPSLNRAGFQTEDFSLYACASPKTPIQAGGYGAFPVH
Experimental: as §1, §2, §3

[3] = target: T3, KDR (VEGFR2) (Homo sapiens, UniProt P35968); assay: In vitro kinase assay (Z′-LYTE); assay type: biochemical; conditions: read-out: % of inhibition of the kinase compared to the control
T3 construct: purchased Invitrogen
Experimental: as §1, §2, §3

[4] = target: T4, EGFR (ErbB1) (Homo sapiens, UniProt P00533); assay: In vitro kinase assay (Z′-LYTE); assay type: biochemical; conditions: read-out: % of inhibition of the kinase compared to the control
T4 construct: purchased Invitrogen
Experimental: as §1, §2, §3

[5] = system: HUVEC; assay: In vitro cell proliferation assay (MTT); assay type: cell-based; conditions: Homo sapiens, 72 h
Experimental: (§4) Cancer cell lines (5×10^3 cells per well) or HUVEC (1×10^4 cells per well) or HRMEC (1×10^4 cells per well) were distributed in 96-well plates and incubating in duplicate with escalating concentrations (10 nM to 3 μM) of compounds for 72 hr. Cell proliferation was measured using MTT (3 [4,5-dimethylthiazol-2-yl]-2,5-diphenyltetrazolium bromide).

[6] = system: HepG2; assay: In vitro cell proliferation assay (MTT); assay type: cell-based; conditions: Homo sapiens, HepG2, 72 h
Experimental: as §4

[7] = system: HuH7; assay: In vitro cell proliferation assay (MTT); assay type: cell-based; conditions: Homo sapiens, Huh-7, 72 h
Experimental: as §4

[8] = target: T5, FGFR1 (Homo sapiens, UniProt P11362); assay: In vitro kinase assay (Z′-LYTE); assay type: biochemical; conditions: read-out: % of inhibition of the kinase compared to the control
T5 construct: purchased Invitrogen
T5 sequence (P11362 22-822): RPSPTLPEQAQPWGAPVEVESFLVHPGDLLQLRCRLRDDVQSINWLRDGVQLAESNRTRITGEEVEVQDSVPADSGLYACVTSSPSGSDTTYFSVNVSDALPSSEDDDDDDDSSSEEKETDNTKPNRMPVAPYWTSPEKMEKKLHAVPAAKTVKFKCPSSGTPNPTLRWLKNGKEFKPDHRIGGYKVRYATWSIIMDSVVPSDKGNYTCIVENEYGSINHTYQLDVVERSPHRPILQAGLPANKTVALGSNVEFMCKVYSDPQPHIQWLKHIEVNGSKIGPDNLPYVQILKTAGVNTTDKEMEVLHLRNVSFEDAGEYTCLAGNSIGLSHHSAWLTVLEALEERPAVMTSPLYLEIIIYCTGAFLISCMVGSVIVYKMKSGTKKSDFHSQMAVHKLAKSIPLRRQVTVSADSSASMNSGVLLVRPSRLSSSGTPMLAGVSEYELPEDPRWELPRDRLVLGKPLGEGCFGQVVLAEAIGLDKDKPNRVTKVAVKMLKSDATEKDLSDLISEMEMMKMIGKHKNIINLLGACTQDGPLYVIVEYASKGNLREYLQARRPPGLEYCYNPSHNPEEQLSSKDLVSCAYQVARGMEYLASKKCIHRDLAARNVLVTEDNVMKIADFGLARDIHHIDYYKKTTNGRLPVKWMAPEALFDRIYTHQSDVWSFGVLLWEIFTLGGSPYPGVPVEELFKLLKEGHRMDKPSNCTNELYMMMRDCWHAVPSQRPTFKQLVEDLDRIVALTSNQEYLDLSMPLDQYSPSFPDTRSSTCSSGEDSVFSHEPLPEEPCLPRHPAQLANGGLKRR
Experimental: as §1, §2, §3

[9] = target: T6, PDGFRB (Homo sapiens, UniProt P09619); assay: In vitro kinase assay (Z′-LYTE); assay type: biochemical; conditions: read-out: % of inhibition of the kinase compared to the control
T6 construct: purchased Invitrogen
Experimental: as §1, §2, §3

[10] = target: T7, SRC (Homo sapiens, UniProt P12931); assay: In vitro kinase assay (Z′-LYTE); assay type: biochemical; conditions: read-out: % of inhibition of the kinase compared to the control
T7 construct: purchased Invitrogen
T7 sequence (P12931 whole entry): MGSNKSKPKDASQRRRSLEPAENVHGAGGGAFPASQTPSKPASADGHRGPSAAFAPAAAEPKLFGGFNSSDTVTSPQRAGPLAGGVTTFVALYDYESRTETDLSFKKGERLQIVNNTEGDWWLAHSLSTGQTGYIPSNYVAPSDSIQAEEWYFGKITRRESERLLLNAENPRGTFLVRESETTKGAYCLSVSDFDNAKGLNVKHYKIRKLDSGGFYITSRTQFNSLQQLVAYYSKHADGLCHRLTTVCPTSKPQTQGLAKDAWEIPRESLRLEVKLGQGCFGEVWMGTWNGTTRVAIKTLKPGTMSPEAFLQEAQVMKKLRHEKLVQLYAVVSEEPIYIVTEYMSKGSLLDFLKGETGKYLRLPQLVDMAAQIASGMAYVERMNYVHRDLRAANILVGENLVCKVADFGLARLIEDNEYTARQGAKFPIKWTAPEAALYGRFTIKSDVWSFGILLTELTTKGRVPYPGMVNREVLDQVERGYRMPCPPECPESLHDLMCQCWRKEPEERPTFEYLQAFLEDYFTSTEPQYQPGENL
Experimental: as §1, §2, §3

[11] = target: T8, EGFR (ErbB1) T790M L858R (Homo sapiens, UniProt P00533, L858R/T790M); assay: In vitro kinase assay (Z′-LYTE); assay type: biochemical; conditions: read-out: % of inhibition of the kinase compared to the control
T8 construct: purchased Invitrogen
T8 sequence (P00533 25-1210 T790M/L858R): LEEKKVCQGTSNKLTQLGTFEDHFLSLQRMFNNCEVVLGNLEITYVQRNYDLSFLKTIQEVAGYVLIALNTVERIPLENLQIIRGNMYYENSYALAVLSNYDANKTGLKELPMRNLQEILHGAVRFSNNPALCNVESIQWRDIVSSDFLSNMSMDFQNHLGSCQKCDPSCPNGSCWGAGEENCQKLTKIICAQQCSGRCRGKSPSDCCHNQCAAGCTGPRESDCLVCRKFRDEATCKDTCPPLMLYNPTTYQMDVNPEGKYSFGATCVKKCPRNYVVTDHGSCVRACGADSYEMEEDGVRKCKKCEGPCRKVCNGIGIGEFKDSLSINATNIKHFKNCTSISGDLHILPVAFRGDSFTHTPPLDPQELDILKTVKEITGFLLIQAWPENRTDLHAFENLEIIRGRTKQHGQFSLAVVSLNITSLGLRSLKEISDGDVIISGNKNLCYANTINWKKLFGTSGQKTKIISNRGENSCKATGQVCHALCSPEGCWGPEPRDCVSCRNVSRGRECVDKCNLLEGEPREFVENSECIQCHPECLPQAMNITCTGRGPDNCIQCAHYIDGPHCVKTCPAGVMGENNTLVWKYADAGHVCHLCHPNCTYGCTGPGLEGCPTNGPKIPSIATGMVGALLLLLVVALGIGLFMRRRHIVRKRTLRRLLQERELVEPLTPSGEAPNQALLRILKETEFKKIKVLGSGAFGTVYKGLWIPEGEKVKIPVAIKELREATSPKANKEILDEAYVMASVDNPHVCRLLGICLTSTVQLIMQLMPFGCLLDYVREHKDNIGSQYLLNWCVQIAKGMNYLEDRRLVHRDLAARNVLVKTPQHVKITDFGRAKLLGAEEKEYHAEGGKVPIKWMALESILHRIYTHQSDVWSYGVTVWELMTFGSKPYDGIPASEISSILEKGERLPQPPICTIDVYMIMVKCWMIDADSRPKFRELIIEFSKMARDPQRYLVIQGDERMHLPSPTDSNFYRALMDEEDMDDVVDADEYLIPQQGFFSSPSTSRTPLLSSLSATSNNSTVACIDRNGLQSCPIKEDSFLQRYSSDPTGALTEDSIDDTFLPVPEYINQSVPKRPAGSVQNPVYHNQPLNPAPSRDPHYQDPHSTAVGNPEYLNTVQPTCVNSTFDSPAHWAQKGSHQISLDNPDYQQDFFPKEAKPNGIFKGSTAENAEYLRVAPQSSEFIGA
Experimental: as §1, §2, §3

[12] = target: T9, VEGFR1 (Homo sapiens, UniProt P17948); assay: In vitro kinase assay (Z′-LYTE); assay type: biochemical; conditions: read-out: % of inhibition of the kinase compared to the control
T9 construct: purchased Invitrogen
Experimental: as §1, §2, §3

[13] = target: T10, ABL (Homo sapiens, UniProt P00519); assay: In vitro kinase assay (Z′-LYTE); assay type: biochemical; conditions: read-out: % of inhibition of the kinase compared to the control
T10 construct: purchased Invitrogen
Experimental: as §1, §2, §3

[14] = target: T11, PDGFRA (PDGFR alpha) (Homo sapiens, UniProt P16234); assay: In vitro kinase assay (Z′-LYTE); assay type: biochemical; conditions: read-out: % of inhibition of the kinase compared to the control
T11 construct: purchased Invitrogen
Experimental: as §1, §2, §3

[15] = target: T12, ABL T315I (Homo sapiens, UniProt P00519, T315I); assay: In vitro kinase assay (Z′-LYTE); assay type: biochemical; conditions: read-out: % of inhibition of the kinase compared to the control
T12 construct: purchased Invitrogen
Experimental: as §1, §2, §3

[16] = system: BxPC-3; assay: In vitro cell proliferation assay (MTT); assay type: cell-based; conditions: Homo sapiens, BXPC-3, 72 h
Experimental: as §4

[17] = system: A549; assay: In vitro cell proliferation assay (MTT); assay type: cell-based; conditions: Homo sapiens, A549, 72 h
Experimental: as §4

[18] = system: HT29; assay: In vitro cell proliferation assay (MTT); assay type: cell-based; conditions: Homo sapiens, HT-29, 72 h
Experimental: as §4

[19] = system: H1975; assay: In vitro cell proliferation assay (MTT); assay type: cell-based; conditions: Homo sapiens, NCI-H1975, 72 h
Experimental: as §4

T1 sequence (P21802 22-821): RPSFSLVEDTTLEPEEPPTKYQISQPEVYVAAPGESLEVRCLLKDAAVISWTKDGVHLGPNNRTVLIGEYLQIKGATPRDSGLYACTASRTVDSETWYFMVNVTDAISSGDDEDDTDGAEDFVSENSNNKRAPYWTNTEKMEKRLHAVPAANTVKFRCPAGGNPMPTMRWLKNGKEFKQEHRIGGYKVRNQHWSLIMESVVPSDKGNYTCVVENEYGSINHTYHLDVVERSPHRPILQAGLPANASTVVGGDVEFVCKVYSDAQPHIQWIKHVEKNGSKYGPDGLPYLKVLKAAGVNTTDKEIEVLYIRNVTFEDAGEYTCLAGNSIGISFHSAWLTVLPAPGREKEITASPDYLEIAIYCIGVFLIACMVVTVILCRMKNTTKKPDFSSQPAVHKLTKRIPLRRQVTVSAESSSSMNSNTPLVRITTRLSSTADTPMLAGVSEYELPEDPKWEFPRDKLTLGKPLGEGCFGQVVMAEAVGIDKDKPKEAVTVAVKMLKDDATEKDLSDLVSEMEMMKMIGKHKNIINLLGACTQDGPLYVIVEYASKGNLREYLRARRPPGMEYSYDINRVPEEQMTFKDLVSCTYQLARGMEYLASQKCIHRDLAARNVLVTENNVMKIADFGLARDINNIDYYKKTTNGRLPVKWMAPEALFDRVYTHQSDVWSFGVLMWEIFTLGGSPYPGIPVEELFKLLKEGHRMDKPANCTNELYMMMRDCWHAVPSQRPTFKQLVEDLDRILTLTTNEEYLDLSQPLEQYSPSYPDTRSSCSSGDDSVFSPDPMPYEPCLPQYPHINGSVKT

| SMILES | inhibition at 0.1 µM [1] [%] | inhibition at 0.1 µM [2] [%] | inhibition at 0.1 µM [3] [%] | inhibition at 0.1 µM [4] [%] | EC50 [5] [nM] | EC50 [6] [nM] | EC50 [7] [nM] | inhibition at 0.1 µM [8] [%] | inhibition at 0.1 µM [9] [%] | inhibition at 0.1 µM [10] [%] | inhibition at 0.1 µM [11] [%] | inhibition at 0.1 µM [12] [%] | inhibition at 10 µM [13] [%] | inhibition at 0.1 µM [14] [%] | inhibition at 10 µM [15] [%] | EC50 [16] [nM] | EC50 [17] [nM] | EC50 [18] [nM] | EC50 [19] [nM] |
| --- | --- | --- | --- | --- | --- | --- | --- | --- | --- | --- | --- | --- | --- | --- | --- | --- | --- | --- | --- |
| COC(=O)c1cc2cc(NCc3cc(NC(=O)c4cncc(C)c4)ccc3C)cnc2[nH]1 [OR0867] | < 50 | ≥ 50 | ≥ 50 | ≥ 50 | ≥ 1000 | 100 to 1000 | ≥ 1000 | – | – | – | – | – | – | – | – | – | – | – | – |
| COC(=O)c1cc2cc(NCc3cc(NC(=O)Nc4cccc(C(F)(F)F)c4)ccc3C)cnc2[nH]1 [OR0603] | < 50 | < 50 | < 50 | < 50 | – | – | – | < 50 | < 50 | ≥ 50 | < 50 | < 50 | ≥ 50 | ≥ 50 | < 50 | 100 to 1000 | – | – | – |
| COC(=O)c1cc2cc(NCc3cc(NC(=O)c4ccc(-c5csc(C)n5)cc4)ccc3C)cnc2[nH]1 [OR0620] | < 50 | < 50 | < 50 | ≥ 50 | – | – | – | < 50 | < 50 | ≥ 50 | < 50 | < 50 | ≥ 50 | ≥ 50 | < 50 | ≥ 1000 | – | – | – |
| CCCOC(=O)c1cc2cc(NCc3cc(NC(=O)c4ccc(CN5CCN(C)CC5)c(C(F)(F)F)c4)ccc3C)cnc2[nH]1 [OR0697, 5-{2-methyl-5-[4-(4-methyl-piperazin-1-ylmethyl)-3-trifluoromethyl-benzoylamino]-benzylamino}-1H-pyrrolo[2,3-b]pyridine-2-carboxylic acid propyl ester] | < 50 | < 50 | < 50 | ≥ 50 | 100 to 1000 | 100 to 1000 | – | – | – | ≥ 50 | < 50 | – | – | < 50 | – | 100 to 1000 | 100 to 1000 | 100 to 1000 | ≥ 1000 |
| COC(=O)c1cc2cc(NCc3ccc(C)c(NC(=O)c4ccc(CN5CCN(C)CC5)c(C(F)(F)F)c4)c3)cnc2[nH]1 [OR0622] | ≥ 50 | < 50 | ≥ 50 | < 50 | 100 to 1000 | ≥ 1000 | – | ≥ 50 | < 50 | ≥ 50 | < 50 | < 50 | ≥ 50 | ≥ 50 | ≥ 50 | ≥ 1000 | ≥ 1000 | ≥ 1000 | ≥ 1000 |
| COC(=O)c1cc2cc(NCc3cc(NC(=O)c4ccc(CN5CCOCC5)c(C(F)(F)F)c4)ccc3C)cnc2[nH]1 [OR0598] | < 50 | < 50 | < 50 | ≥ 50 | ≤ 100 | 100 to 1000 | – | < 50 | < 50 | ≥ 50 | < 50 | < 50 | ≥ 50 | ≥ 50 | ≥ 50 | 100 to 1000 | 100 to 1000 | 100 to 1000 | 100 to 1000 |
| C#Cc1cccc(Nc2ncnc3cc(OCCOC)c(OCCOC)cc23)c1 [Erlotinib, reference compound] | – | – | – | – | ≥ 1000 | – | – | – | – | – | – | – | – | – | – | ≥ 1000 | – | – | ≥ 1000 |
| COC(=O)c1cc2cc(NCc3cc(NC(=O)C4CCC(C(F)(F)F)CC4)ccc3C)cnc2[nH]1 (stereo not drawn) [OR0612] | < 50 | < 50 | < 50 | < 50 | 100 to 1000 | 100 to 1000 | – | < 50 | < 50 | ≥ 50 | < 50 | < 50 | ≥ 50 | ≥ 50 | < 50 | 100 to 1000 | 100 to 1000 | ≥ 1000 | ≥ 1000 |
| COC(=O)c1cc2cc(NCc3cc(NC(=O)c4cccc(Br)c4)ccc3C)cnc2[nH]1 [OR0608] | < 50 | ≥ 50 | ≥ 50 | < 50 | 100 to 1000 | 100 to 1000 | – | < 50 | < 50 | ≥ 50 | < 50 | < 50 | ≥ 50 | ≥ 50 | < 50 | 100 to 1000 | 100 to 1000 | ≥ 1000 | ≥ 1000 |
| COC(=O)c1cc2cc(NC(=O)c3cc(NC(=S)c4cc(-n5cnc(C)c5)cc(C(F)(F)F)c4)ccc3C)cnc2[nH]1 [OR0643] | < 50 | < 50 | < 50 | < 50 | – | – | – | < 50 | < 50 | < 50 | < 50 | < 50 | ≥ 50 | < 50 | < 50 | ≥ 1000 | – | – | – |
| COC(=O)c1cc2cc(NCc3cc(NC(=O)Cc4cccc(C(F)(F)F)c4)ccc3C)cnc2[nH]1 [OR0601] | < 50 | ≥ 50 | < 50 | < 50 | ≤ 100 | ≤ 100 | – | < 50 | < 50 | ≥ 50 | < 50 | < 50 | ≥ 50 | ≥ 50 | < 50 | ≥ 1000 | 100 to 1000 | 100 to 1000 | ≥ 1000 |
| COC(=O)c1cc2cc(NCc3cc(NC(=O)c4cccc5c4OCC5)ccc3C)cnc2[nH]1 [OR0618] | < 50 | < 50 | < 50 | < 50 | – | – | – | < 50 | < 50 | ≥ 50 | < 50 | < 50 | ≥ 50 | ≥ 50 | < 50 | 100 to 1000 | – | – | – |
| COC(=O)c1cc2cc(NCc3cc(NC(=O)c4ccc(CNCCN5CCN(C)CC5)c(C(F)(F)F)c4)ccc3C)cnc2[nH]1 [OR0637] | < 50 | ≥ 50 | ≥ 50 | ≥ 50 | 100 to 1000 | 100 to 1000 | – | < 50 | ≥ 50 | ≥ 50 | ≥ 50 | < 50 | ≥ 50 | ≥ 50 | ≥ 50 | ≥ 1000 | 100 to 1000 | 100 to 1000 | ≥ 1000 |
